Results published in ChEMBL document CHEMBL5143510, “Structure modification and biological evaluation of indole-chalcone derivatives as anti-tumor agents through dual targeting tubulin and TrxR” (Eur J Med Chem, 2022).
Active and inactive are the calls of the source. No cut-off for these calls is given here.

Legend:
[1] = species: Homo sapiens; assay: Inhibition of TrxR (unknown origin) assessed as alkylation of TrxR by measuring weak band intensity using BIAM as substrate at 10 to 40 uM preincubated for 2 hrs in presence of NADPH followed by substrate addition and measured after 30 mins by Western blot analysis; conditions: dose 10-40 µM, time 2.5 hrs
[2] = system: MHCC97H; assay: Antiproliferative activity against human MHCC97H cells assessed as reduction in cell viability incubated for 48 hrs by MTT assay; assay type: functional, cell-based
[3] = target: T1, Tubulin (Homo sapiens) (UniProt P68371+Q9H4B7+P0DPH7+P68366+Q13509+Q71U36+P04350+Q3ZCM7+P07437+P68363+Q9BQE3+Q6PEY2+Q13885+Q9BVA1+Q9BUF5); assay: Inhibition of colchicine binding to tubulin (unknown origin) at 5.0 uM by competitive binding assay relative to control; assay type: protein-complex assay
[4] = system: HUVEC; assay: Induction of morphological changes in human HUVEC cells assessed as cell shrinkage at 50 nM incubated for 48 hrs by phase contrast microscopic analysis; assay type: toxicity, cell-based; conditions: 0.05 µM
[5] = system: NCI/ADR-RES; assay: Antiproliferative activity against adriamycin resistant human MCF7/ADR cells assessed as reduction in cell viability incubated for 48 hrs by MTT assay; assay type: functional, cell-based
[6] = system: MHCC97H; assay: Induction of oxidative stress in human MHCC97H cells assessed as increase in superoxide anion level at 5 to 50 nM incubated for 4 hrs by DHE based fluorescence microscopy; assay type: functional, cell-based; conditions: dose 5-50 nM
[7] = Resistance index, ratio of IC50 for antiproliferative activity against paclitaxel resistant human A2780/PTX cells to IC50 for antiproliferative activity against human A2780 cells; assay type: functional
[8] = species: Homo sapiens; assay: Irreversible inhibition of TrxR (unknown origin) using DTNB as substrate at 5 uM incubated for 2 hrs in presence of NADPH followed by substrate addition ultrafiltration based microplate reader analysis relative to control
[9] = target: Tubulin; assay: Inhibition of colchicine binding to tubulin (unknown origin) by competitive binding assay; assay type: protein-complex assay, Homo sapiens
[10] = target: T1, Tubulin (Homo sapiens); assay: Inhibition of colchicine binding to tubulin (unknown origin) at 0.156 uM by competitive binding assay relative to control; assay type: protein-complex assay
[11] = system: MCF7; assay: Antiproliferative activity against human MCF7 cells assessed as reduction in cell viability incubated for 48 hrs by MTT assay; assay type: functional, cell-based; conditions: MCF7, 48 h
[12] = system: MHCC97H; assay: Antitumor activity against human MHCC97H cells xenografted in BALB/c mouse assessed as tumor growth inhibition at 30 mg/kg, ip administered every other day for 30 days; assay type: functional; conditions: 720 h, time 30 day, read-out: TGI
[13] = Cytotoxicity against human HLF cells assessed as reduction in cell viability incubated for 48 hrs by MTT assay; assay type: toxicity, cell-based
[14] = target: T1, Tubulin (Homo sapiens); assay: Inhibition of colchicine binding to tubulin (unknown origin) at 0.625 uM by competitive binding assay relative to control; assay type: protein-complex assay
[15] = system: MHCC97H; assay: Induction of apoptosis in human MHCC97H cells assessed as upregulation of Bax expression measured after 24 to 48 hrs by Western blot analysis; assay type: functional, cell-based; conditions: dose 5-50 nM, time 24-48 hrs, DDE = dose-dependent effect
[16] = Selectivity ratio, ratio of IC50 for cytotoxicity against human L02 cells to IC50 for antiproliferative activity against human MHCC97H cells; assay type: toxicity, cell-based; conditions: L02 cells versus MHCC97H cells, read-out: Ratio IC50
[17] = system: HCT-8; assay: Antiproliferative activity against human HCT-8 cells assessed as reduction in cell viability incubated for 48 hrs by MTT assay; assay type: functional, cell-based; conditions: HCT-8, 48 h
[18] = Antiproliferative activity against paclitaxel resistant human A2780/PTX cells assessed as reduction in cell viability incubated for 48 hrs by MTT assay; assay type: functional, cell-based
[19] = target: T1, Tubulin (Homo sapiens); assay: Induction of microtubule disruption in human MHCC97H cells assessed as occurence of cell shrinkage at 10 nM incubated for 8 hrs followed by compound washout and measured after 24 hrs by immunofluorescence based confocal microscopic analysis
[20] = target: T1, Tubulin (Homo sapiens); assay: Disruption of microtubule network in human MHCC97H cells assessed as punctate morphology at 5 to 50 nM incubated for 24 hrs by Hoechst 33342 staining based confocal microscopy; assay type: cell-based; conditions: dose 5-50 nM
[21] = target: Tubulin; assay: Inhibition of tubulin polymerization (unknown origin) assessed as decrease in fluorescence intensity incubated for 90 mins by DAPI staining based microplate reader analysis; assay type: protein-complex assay, Homo sapiens
[22] = species: Homo sapiens; assay: Mixed type inhibition of TrxR (unknown origin) using various concentrations of DTNB as substrate at 1.875 to 15 uM preincubated for 15 mins followed by substrate addition by double reciprocal Lineweaver-Burk plot analysis; conditions: dose 1.875-15 µM
[23] = target: T1, Tubulin (Homo sapiens); assay: Inhibition of colchicine binding to tubulin (unknown origin) at 1.25 uM by competitive binding assay relative to control; assay type: protein-complex assay
[24] = system: HeLa; assay: Antiproliferative activity against human HeLa cells assessed as reduction in cell viability incubated for 48 hrs by MTT assay; assay type: functional, cell-based
[25] = system: MHCC97H; assay: Induction of cell cycle arrest in human MHCC97H cells assessed as decrease in accumulation of cells at G1 phase at 5 to 50 nM measured after 48 hrs by propidium iodide staining based flow cytometry; assay type: functional; conditions: dose 5-50 nM
[26] = Cytotoxicity against human L02 cells assessed as reduction in cell viability incubated for 48 hrs by MTT assay; assay type: toxicity, cell-based
[27] = system: MHCC97H; assay: Downregulation of TrxR in human MHCC97H cells at 5 to 50 nM incubated for 48 hrs by Western blot analysis; assay type: functional, cell-based; conditions: dose 5-50 nM
[28] = Selectivity ratio, ratio of IC50 for cytotoxicity against human MCF-10A cells to IC50 for antiproliferative activity against human MHCC97H cells; assay type: toxicity, cell-based; conditions: MCF-10A cells versus MHCC97H cells, read-out: Ratio IC50
[29] = system: A549; assay: Antiproliferative activity against human A549 cells assessed as reduction in cell viability incubated for 48 hrs by MTT assay; assay type: functional, cell-based; conditions: A549, 48 h
[30] = system: MHCC97H; assay: Induction of cell cycle arrest in human MHCC97H cells assessed as increase in accumulation of cells at G2/M phase at 5 to 50 nM measured after 48 hrs by propidium iodide staining based flow cytometry; assay type: functional; conditions: dose 5-50 nM
[31] = system: MHCC97H; assay: Induction of morphological changes in human MHCC97H cells assessed as loss of adherent property at 5 to 50 nM incubated for 48 hrs by phase contrast microscopic analysis; assay type: functional, cell-based; conditions: dose 5-50 nM
[32] = system: MHCC97H; assay: Induction of ROS production in human MHCC97H cells assessed as increase in accumulation ROS level at 5 to 50 nM incubated for 4 hrs by DCFH-DA staining based fluorescence microscopy; assay type: functional, cell-based; conditions: dose 5-50 nM
[33] = system: MHCC97H; assay: Induction of apoptosis in human MHCC97H cells assessed as increase in total apoptotic cells incubated for 24 to 48 hrs by Annexin V-FITC/PI staining based flow cytometry method; assay type: functional, cell-based; conditions: dose 5-50 nM, time 24-48 hrs, DDE = dose-dependent effect
[34] = system: MHCC97H; assay: Antitumor activity against human MHCC97H cells xenografted in BALB/c mouse assessed as tumor volume at 30 mg/kg, ip administered every other day for 30 days; assay type: functional; conditions: time 30 day
[35] = target: T1, Tubulin (Homo sapiens); assay: Binding affinity to tubulin (unknown origin) assessed as reduction in peak area in the filtrate at 30 uM incubated for 1 hr by HPLC analysis; assay type: protein-complex assay

inhibition [1]: Active
inhibition [3]: 86.8%
inhibition [8]: 84%
IC50 [9]: 1300 nM
inhibition [10]: 24.9%
IC50 [11]: 35 nM
inhibition [14]: 45%
IC50 [17]: 29 nM
Activity [19]: Active
Activity [20]: Active
IC50 [21]: 810 nM
inhibition [22]: Active
inhibition [23]: 56.5%
IC50 [24]: 21 nM
IC50 [29]: 8 nM
Activity [35]: Active
Structure (SMILES): COc1ccc2c(/C=C(\C)C(=O)c3cc(OC)c(OC)c([Se]C)c3)c[nH]c2c1
IC50 [2]: 6 nM
Activity [4]: Toxic
IC50 [5]: 18 nM
Activity [6]: Active
Ratio IC50 [7]: 1.11
inhibition in vivo at 30 mg/kg [12]: 75.4%
IC50 at 48 h [13]: 2370 nM
Activity [15]: Dde
selectivity ratio [16]: 66.3
IC50 [18]: 20 nM
Activity [25]: Active
IC50 at 48 h [26]: 398 nM
Activity [27]: Active
selectivity ratio [28]: 121
Activity [30]: Active
Activity [31]: Active
Activity [32]: Active
Activity [33]: Dde
Activity [34]: 419.7 mm3
